The values that follow come from ChEMBL document CHEMBL2448809, “UCSF DeRisi Lab MMV Box Apicoplast Screening”.

The test system of this test is Plasmodium falciparum. The test can be described thus: MMV: Compounds (1uM) were screened in a 72hr growth assay monitored by flow cytometry both in the presence and absence of supplemental isopentenyl pyrophosphate (IPP) 200uM. Compounds which fail to show anti-malarial activity when chemically rescued by IPP are therefore specific to the apicoplast. The values are expressed as the ratio of the corresponding activity with and without IPP, respectively. Format: functional, W2. In general terms: A flow cytometer gives signals particle by particle.
As for `COc1ccc2c(c1)C1(Nc3ccccc3-c3nc4ccccc4n31)C(=O)N2` (stereo unspecified), the Ratio is on record as 0.9667.
Regarding `COc1cccc(Cn2c(Oc3ccccc3)nc3c2c(=O)n(C)c(=O)n3C)c1`, the Ratio amounted to 0.9255.
Turning to `CCOc1c(Cl)cc(CNCC(O)c2ccccc2)cc1OC` (stereo unspecified), the Ratio is on record as 0.8286.
As for `OC(CNCC1CCCO1)Cn1c2ccc(Cl)cc2c2cc(Cl)ccc21` (stereo unspecified), the Ratio was 0.8732.
With `COc1ccc2nc(C)cc(Nc3ccccc3O)c2c1`, the Ratio was determined as 0.7711.
On to `CCn1nc(-c2ccc(C(=O)OC)cc2)nc2c(=O)n(C)c(=O)nc1-2`, for which the Ratio turned out to be 1.058.
The figure for `CCOc1ccccc1CN1CCc2nc3cc(C(C)(C)C)nn3c(O)c2C1` is 0.8444; for `Cc1cc(N2CCCC2)nc(Nc2ccc(NC(=O)CCc3ccccc3)cc2)n1` it is 0.9077.
Regarding `CN1CCN(c2ncnc3c2[nH]c2ccc(Cl)cc23)CC1`, the Ratio is 0.9492.
On to `CC1(c2ccccc2)Nc2ccccc2-c2nc3ccccc3n21` (stereo unspecified), for which the Ratio turned out to be 1.062.
For the molecule `CC(C)(C)CC(C)(C)NCC(O)COc1ccc(Cl)cc1Cl` (stereo unspecified), the Ratio was 0.8983.
The figure for `O=C1c2ccccc2-c2nnc(-c3ccc(Br)cc3)cc21` is 0.8889; for `O=C(Nc1ccc(Br)cc1)Nc1cccc(Cl)c1` it is 1.104.
On to `CN(C)CCNc1cc(-c2ccccc2)nc2ccccc12`, for which the Ratio stood at 1.015.
As to `CCOC(=O)C1=C(C)N=c2sc(=Cc3cc(Cl)ccc3O)c(=O)n2C1c1ccc(OC)cc1` (stereo unspecified), the Ratio is 1.255.
As for `Cc1nc2ccccc2c(O)c1CC=C(Cl)Cl`, the Ratio is reported as 1.066.
In the case of `FC(F)(F)c1cccc(Nc2nc3ccccc3nc2Nc2cccc(C(F)(F)F)c2)c1` it was 1.08.
Consider `COc1ccc2nc(C)cc(Nc3ccc(Cl)cc3)c2c1`, for which the Ratio came out at 0.8189.
The figure for `CCC(O)c1ccc(Br)cc1NC(=O)c1cccc(Cl)c1` (stereo unspecified) is 1.
In the case of `COc1ccc2nc(C)cc(Nc3cccc(O)c3)c2c1.Cl`, the Ratio is 1.191.
As to `CN(C)CCCNCc1ccc(-c2ccc(F)c(Cl)c2)o1.Cl`, the Ratio was found to be 0.75.
Consider `O=c1nc(C=Cc2ccc(Br)cc2)oc2ccccc12`, for which the Ratio came out at 1.133.
`COc1ccc2nc(N)nc(C)c2c1`: the Ratio came to 0.8974.
In the case of `CC(=O)c1ccc(NC(=O)CSc2nc(-c3ccccc3Cl)ns2)cc1`, the Ratio amounted to 1.02.
Consider `Cc1sc2ncnc(Sc3nc4ccccc4[nH]3)c2c1C`, for which the Ratio is 0.9273.
In the case of `COc1ccc(C(=O)NC(c2ccc(Cl)cc2Cl)c2cc(Cl)c3cccnc3c2O)cc1` (stereo unspecified), the Ratio was 0.9814.
With `CCC(=O)Nc1nnc(Cc2ccc(OC)c(OC)c2)s1`, the Ratio was 0.7213.
In the case of `O=C(NCCCN1CCC(N2CCCCC2)CC1)C1=Cc2cc(Br)ccc2OC1`, the Ratio was determined as 0.8966.
For the molecule `Cc1ccnc(NC(c2cccc(OCc3ccccc3)c2)c2ccc3cccnc3c2O)c1` (stereo unspecified), the Ratio is 1.558.
With `O=C(Nc1ccc(CN2CCOCC2)cc1)c1ccc(-c2cc(Cl)ccc2Cl)o1`, the Ratio came to 0.9054.
`Cc1cc(Nc2cccc(F)c2)nc(NCc2ccccc2)n1`: the Ratio is given as 0.8333.
For the molecule `O=c1cc(NC2CCN(CCCc3ccccc3)CC2)c2cc(Cl)ccc2o1`, the Ratio is recorded as 1.019.
With `Cc1ccc(OCCCCCCNCCO)c(C)c1`, the Ratio came out at 0.8556.
Regarding `COc1cccc(C(=O)Nc2ccc(-c3nc4ccccc4[nH]3)cc2)c1`, the Ratio worked out at 0.7651.
For `COCCn1c(C)nc2ccccc2c1=O`, the Ratio worked out at 0.9589.
Turning to `O=C(Nc1cccc(-c2nc3ccccc3[nH]2)c1)c1cccc(NC(=O)c2ccco2)c1`, the Ratio was 0.6407.
As for `O=C(NC1CCN(Cc2ccccc2)CC1)c1cc(-c2cccnc2)nc2ccc(Cl)cc12`, the Ratio came out at 0.7184.
In the case of `CC1CCN(Cc2c(O)ccc3cc(-c4nc5ccccc5s4)c(=O)oc23)CC1` it was 1.058; in that of `Cc1ccc2cc3c(N)c4c(C)ccc(C)c4nc3nc2c1`, 1.095; in that of `CC(C)CCNCC(O)Cn1c2ccccc2c2ccccc21.Cl` (stereo unspecified), 0.9245.
The figure for `CCOC(=O)c1cnc2ccc(Cl)cc2c1NCCCN(C)C` is 1.179; for `CCOc1ccccc1NC(=O)CN1CCN(C(=O)c2ccco2)CC1` it is 0.906.
`O=C(Nc1ccc(C23CC4CC(CC(c5ccccc5)(C4)C2)C3)cc1)c1cccs1`: the Ratio is recorded as 0.9231.
As to `O=C1c2ccccc2C2=Nc3ccccc3SC(c3cccc(F)c3)C12` (stereo unspecified), the Ratio was determined as 0.8676.
Turning to `Cc1ccccc1OCCSc1nc2ccc(NC(=O)c3ccccc3)cc2s1`, the Ratio is given as 0.8842.
Take `CCOC(=O)c1cnc2c(C)cccc2c1Nc1ccc(C(C)=O)cc1`: the Ratio worked out at 1.3.
Turning to `COc1ccc(-c2nonc2NC(=O)c2cccc(Cl)c2)cc1OC`, the Ratio came to 0.9.
For the molecule `Cc1cc(NC(=O)c2ccc(-c3ccccc3)cc2)no1`, the Ratio turned out to be 0.9841.
Regarding `CCOc1cc2c(cc1OCC)C(c1cc(C)c(O)c(C)c1)NCC2.Cl` (stereo unspecified), the Ratio came to 1.148.
As to `O=C1CC(O)(C(F)(F)C(F)(F)F)Oc2ccccc21` (stereo unspecified), the Ratio came out at 0.8205.
Consider `COc1cc(SC)ccc1C(=O)N1CCCC(C)C1` (stereo unspecified), for which the Ratio worked out at 0.6888.
In the case of `Cc1ccc(C2CC(C(F)(F)F)n3nc(C(=O)N4CCN(C(c5ccccc5)c5ccccc5)CC4)cc3N2)cc1` (stereo unspecified) it was 0.725.
On to `Cc1ccc2nc(C)cc(Nc3cccc(C(F)(F)F)c3)c2c1.Cl`, for which the Ratio is 0.875.
For the molecule `CC(C)c1ccc(CNCC(O)c2ccccc2)cc1.Cl` (stereo unspecified), the Ratio amounted to 0.9296.
For `CC(C)(C)c1ccc(C(=O)Nc2c3c(nn2-c2cccc(Cl)c2)CSC3)cc1`, the Ratio is reported as 0.9138.
`CCOc1cc2c(cc1OCC)C(c1cc(Cl)c(O)c(OCC)c1)NCC2` (stereo unspecified): the Ratio was found to be 0.8824.
On to `COc1ccc(N2CCN(C(CNC(=O)CC(C)(C)C)c3ccc4c(c3)OCO4)CC2)cc1` (stereo unspecified), for which the Ratio was 0.8841.
In the case of `COc1cccc(C(=O)NC(c2ccc(C)cc2)c2cc(Cl)c3cccnc3c2O)c1` (stereo unspecified) it was 1.1.
Regarding `CCCCCCn1c(=N)n(CC(O)COc2cccc(C)c2)c2ccccc21.Cl` (stereo unspecified), the Ratio is 0.9831.
For `Cc1ccc(NC(=O)Nc2cccc(Cl)c2)cc1F`, the Ratio is on record as 0.9455.
For the molecule `O=C(O)C(=O)O.Oc1ccc(Br)cc1CN1CCN(Cc2cccc(F)c2)CC1`, the Ratio is given as 0.8333.
As to `COc1ccc(-c2cc(=O)oc3c4c(ccc23)OCN(Cc2ccc(F)cc2)C4)cc1`, the Ratio is 0.9508.
Turning to `CCOC(=O)C1(Cc2ccccc2)CCN(Cc2cccc(OC)c2O)CC1`, the Ratio was 0.7015.
In the case of `Oc1ccc(C(=C(Cl)Cl)c2ccc(O)cc2)cc1`, the Ratio came to 1.113.
As for `CCOc1ccc2c(c1)CN(Cc1ccc(Cl)cc1)CO2`, the Ratio was determined as 0.8361.
For `CC(C)(C)c1ccc2c(c1)CN(Cc1ccc(Cl)cc1)CO2`, the Ratio is 0.8966.
On to `CCCCC(O)(c1ccc(Cl)cc1)C(CN1CCOCC1)c1ccc(Cl)cc1.Cl` (stereo unspecified), for which the Ratio was 1.074.
With `O=c1nc(C=Cc2ccc(Cl)cc2)oc2ccccc12`, the Ratio is reported as 0.9697.
In the case of `O=C(NCc1ccco1)C1CCN(S(=O)(=O)c2ccc(Br)cc2)CC1` it was 0.7733; in that of `CN(C)c1ccc(N2C(N)=NC(N)=NC2(C)C)cc1`, 0.7632.
Take `COc1ccc(Nc2nc(NCc3ccccc3)c3ccccc3n2)cc1`: the Ratio worked out at 1.093.
Take `COc1ccc(OC)c(C2C3=C(CC(C)(C)CC3=O)N(c3ccc(Cl)c(Cl)c3)C3=C2C(=O)CC(C)(C)C3)c1`: the Ratio worked out at 0.9277.
`Cc1cc(=O)oc2c1ccc1oc(C(=O)c3ccccc3)c(C)c12`: the Ratio was 1.067.
For the molecule `COc1ccc(CN2CCN(Cc3ccccc3)CC2)c(O)c1`, the Ratio is on record as 1.283.
In the case of `COc1cc2c(cc1OC)C1=NNC(=O)C1=NC(C)(C)C2` it was 1.994; in that of `COc1ccc2c(c1OC)C(=O)N1c3ccccc3N=C(c3ccc(C)cc3)CC21` (stereo unspecified), 1.052.
For `Oc1c(CN2CCN(c3ccccc3F)CC2)cc(Br)c2cccnc12`, the Ratio is given as 0.8919.
For `CCCCCCc1cc(O)c2c3c(c(=O)oc2c1)CCC(C)C3` (stereo unspecified), the Ratio amounted to 1.073.
As for `Cl.OC(CNCc1ccccc1)Cn1c2ccccc2c2ccccc21` (stereo unspecified), the Ratio is 0.9403.
For the molecule `COc1ccc(CCNC(=O)c2cc(S(=O)(=O)N3CC(C)CC(C)C3)ccc2Sc2ccc(F)cc2)cc1OC` (stereo unspecified), the Ratio is 1.061.
In the case of `CCOc1ccc(Nc2c3ccccc3nc3ccccc23)cc1.Cl`, the Ratio was determined as 1.
The figure for `CC1=C(CC(=O)c2cccc([N+](=O)[O-])c2)C(=O)c2ccccc2C1=O` is 1.085.
With `CCCCc1c(C)nc2c(OC)cccc2c1O`, the Ratio is 0.8472.
The figure for `OC1CCCCC1C1(NC(=S)Nc2ccccc2)CCCCC1` (stereo unspecified) is 0.9298; for `OC1=C2C(=Nc3ccccc3SC2c2ccc(Br)cc2)c2ccccc21` (stereo unspecified) it is 1.068.
For `COc1ccc(C)c2sc(N(Cc3cccnc3)C(=O)c3ccc(C#N)cc3)nc12`, the Ratio was determined as 0.971.
`Clc1ccc2c(N3CCCC3)ccnc2c1`: the Ratio is recorded as 0.8475.
The figure for `CCOC(=O)C1CCN(C(=O)CN2C(=O)c3ccccc3C2c2c[nH]c3ccccc23)CC1` (stereo unspecified) is 0.6812.
Take `CCOc1ccc(CCNC(=O)c2cccs2)cc1OCC`: the Ratio amounted to 1.073.
In the case of `COc1ccc(C(=O)C2CC2c2ccc(Cl)cc2)cc1` (stereo unspecified) it was 1.308; in that of `CCCCCn1c(=N)n(CC(O)COc2cccc(C)c2)c2ccccc21.Cl` (stereo unspecified), 1.128.
Consider `O=c1c2c([nH]c3ccccc13)CCCC2`, for which the Ratio is 0.8986.
In the case of `CCN1CCN(c2c(C(=O)c3ccccc3)cnc3cc(OC)c(OC)cc23)CC1`, the Ratio amounted to 0.9828.
In the case of `Cc1c(C)n(CC(O)CNC2CCCCC2C)c2ccccc12` (stereo unspecified) it was 0.9649.
The figure for `Cc1ccc(S(=O)(=O)c2c(COC(=O)c3cccc(C)c3)c(-c3ccccc3)nn2C)cc1` is 0.9265; for `CCCCN(CCCC)S(=O)(=O)c1ccc(NC(=O)c2ccco2)cc1` it is 0.8649.
